In US20150111933A1, “Deuterated Thiazolidinone Analogues as Agonists for Follicle Stimulating Hormone Receptor” (Merck Patent GmbH, priority 2012, published 2015):

How the values were obtained:
FSHR = target: T1, FSHR (Homo sapiens, UniProt P23945); test: EC50 of cyclic AMP production in CHO FSHR cells + EC20 FSH (HTRF); assay type: cell-based; conditions: Cho-FSHR-LUC-1-1-43 cells; for EC50: + EC20 FSH (0.265 pM), 200 μM IBMX, 1 h at 37° C., read-out: EC50 of cAMP production; for Emax: 1 h, read-out: EC50 of cAMP production (% effect)
T1 construct: expressed in transfected cells; host or cells: CHO (Cho-FSHR-LUC-1-1-43)
T1 sequence (P23945 18-695): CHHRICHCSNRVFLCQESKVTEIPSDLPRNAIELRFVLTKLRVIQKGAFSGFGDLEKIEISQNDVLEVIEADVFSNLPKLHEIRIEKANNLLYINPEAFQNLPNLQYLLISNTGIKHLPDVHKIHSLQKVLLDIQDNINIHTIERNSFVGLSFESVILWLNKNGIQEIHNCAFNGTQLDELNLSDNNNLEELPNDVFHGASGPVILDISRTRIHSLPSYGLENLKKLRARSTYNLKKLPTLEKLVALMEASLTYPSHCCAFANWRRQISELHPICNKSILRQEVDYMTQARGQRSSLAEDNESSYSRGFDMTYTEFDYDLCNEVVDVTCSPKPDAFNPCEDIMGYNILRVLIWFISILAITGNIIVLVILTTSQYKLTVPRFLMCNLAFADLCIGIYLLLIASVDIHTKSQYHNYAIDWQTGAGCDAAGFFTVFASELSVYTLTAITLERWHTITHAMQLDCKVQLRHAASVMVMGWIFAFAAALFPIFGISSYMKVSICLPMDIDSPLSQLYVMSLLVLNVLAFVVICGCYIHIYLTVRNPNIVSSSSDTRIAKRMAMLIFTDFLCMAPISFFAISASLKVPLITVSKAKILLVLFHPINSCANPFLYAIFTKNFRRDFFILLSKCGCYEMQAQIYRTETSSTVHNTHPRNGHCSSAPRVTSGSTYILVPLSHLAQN
Experimental: EC50 of Cyclic AMP Production in CHO FSHR Cells+EC20 FSH
2500 Cho-FSHR-LUC-1-1-43 cells were plated per well in 5 μL of phenol red free DMEM/F12+1% FBS. Cells were plated in 384 well, solid white low volume plates (Greiner 784075) by Multidrop. Cells were assayed by adding […] of 2×EC20 FSH/IBMX in DMEM/F12+0.1% BSA) by Multidrop to 2 μL of test compound stamped in 384 well plates (compounds are diluted 1:50). The final FSH concentration was 0.265 pM, and the final IBMX concentration was 200 μM. The compound plate map was as follows: Column 1: 2 μL of DMSO; Column 2: 2 μL of DMSO; Columns 3-12 and 13-24: 2 μL of test compound, diluted 1:4 in 100% DMSO, or 2 μL of FSH, diluted 1:4 in DMEM/F12+0.1% BSA. The starting concentration for FSH was 50 nM (final concentration was 0.5 nM). Furthermore, Column 23 contained 2 μL of EC100 FSH reference (100×) (diluted in DMEM/F12+0.1% BSA) at a final concentration of 0.5 nM, and Column 24 contained 2 μL of 1 mM AS707664/2 reference compound 2. 5 μL of compound+EC20 FSH mixture were transferred to cell plates (1:2 dilution into 5 μL of cell media) The plates were incubated at 37° C. for 1 h. 10 μL of mixed HTRF (CisBio #62AM4PEC) reagents were added per well and incubated at room temperature for 1 h. The plates were read on Envision using the cAMP HTRF—low volume 384 well protocol. The readout was the calculated fluorescence ratio (665 nm/620 nm).

[1] = Intrinsic clearance (Clint) in human liver microsomes; assay type: in vitro ADME; conditions: 0.5 mg/mL protein, NADPH, up to 30 min, first value of human/rat; for microsomal CLint at 0.8 μM: human, liver microsomes, pH 7.4, human liver microsomes
Experimental: (§1) Intrinsic Clearance (Clint) Assay Protocol:
(§2) A Tecan Genesis workstation (RSP 150/8) was used for to perform the microsomal incubations. Analysis was carried out using a Waters ACQUITY UPLC system coupled to an ABSciex API3000 mass spectrometer. Data analysis was performed using Assay Explorer (Symyx).
(§3) 0.1 M potassium phosphate buffer pH 7.4 containing 1 mM MgCl2 15 mM NADPH in phosphate buffer 4.4 mg protein/mL liver microsomes in phosphate buffer acetonitrile 20% DMSO in water
(§4) Each experiment consists of 12 test and 2 reference compounds. The reference compounds are incubated as a cocktail. Dilution of test compounds was done in 2 steps from a 10 mM DMSO stock solution. First 4 μL stock solution was added to 196 μL of 20% DMSO in potassium phosphate buffer pH 7.4. In a second step 10 μL of the first dilution were added to […] potassium phosphate buffer and 100 μL internal standard solution to a final concentration of 0.8 μM. 100 μL of the final compound dilution were aliquoted into a 96 deep well plate. 12.5 μL liver microsomes were added to each well (0.5 mg/mL final protein concentration) and the samples preincubated for 5 min at 37° C. and 800 rpm agitation.
(§5) After the preincubation, 250 μL cold acetonitrile were added to the 0 min samples to prevent a reaction. Following this, 12.5 μL NADPH solution were added to all wells to start the incubation, with the exception of the 0 min and 30 min controls without cofactor, where the NADPH was substituted for phosphate buffer.
(§6) The incubations were stopped after 5, 10, 20 and 30 min by adding 250 μL cold acetonitrile to the individual wells.
(§7) The quenched samples were then centrifuged at 4000 g for 1 h at 4° C. 100 μL of the supernatant were transferred into 96 well plates for analysis.
(§8) The metabolic stability of each compound was determined by measurement of the change in LC-MS/MS peak area over time. Assay Explorer software was used to automatically calculate the slope k of the decline. The intrinsic clearance (Clint) of each compound was then calculated according to the formula:
(§9) Clint (μL/min/mg protein)=k1000/protein concentration.

[2] = Intrinsic clearance (Clint) in rat liver microsomes; assay type: in vitro ADME; conditions: 0.5 mg/mL protein, NADPH, up to 30 min, second value of human/rat; for microsomal CLint at 0.8 μM: rat, liver microsomes, pH 7.4, rat liver microsomes
Experimental: as §1, §2, §3, §4, §5, §6, §7, §8, §9

[3] = + EC20 FSH, % effect in brackets

Row | SMILES | EC50 (FSHR) [nM] | EC50 of cAMP production (% effect) (FSHR; + EC20 FSH, % effect in brackets, 60 min) | Clint (human) ([1]; human liver microsomes) [μL/min/mg protein] | Clint (rat) ([2]; rat liver microsomes) [μL/min/mg protein] | Emax (FSHR; [3]) [%] | microsomal CLint at 0.8 μM [1] [µL/min/mg] | microsomal CLint at 0.8 μM [2] [µL/min/mg]
1 | [2H]C([2H])(NC(=O)C[C@H]1S[C@@H](c2ccc(C#Cc3ccccc3)cc2)N(c2cccc(C(N)=O)c2)C1=O)C([2H])([2H])c1ccc(OC)c(OCC)c1 (single isomer, unassigned) [Compound 14] | 2 | (99) % | 492 | 95 |  |  | 
2 | [2H]C([2H])(NC(=O)C[C@H]1S[C@@H](c2ccc(C#Cc3ccccc3)cc2)N(c2cccc(C(N)=O)c2)C1=O)C([2H])([2H])c1ccc(OC)c(OC)c1 [Compound 2, 3-((2S,5R)-4-oxo-5-(2-oxo-2-((1,1,2,2-d4-2-(3,4-dimethoxyphenyl)ethyl)amino)ethyl)-2-(4-(phenylethynyl)phenyl)thiazolidin-3-yl)benzamide] | 1.9 |  |  |  | 97 | 106 | 24
3 | CCOc1cc(CCNC(=O)C[C@H]2S[C@@H](c3ccc(C#Cc4ccccc4)cc3)N(c3cccc(C(N)=O)c3)C2=O)ccc1OC [Reference compound, reference compound] | 0.3 |  |  |  | 98 | 182 | 120

Second part, the molecule after the results:

Row | EC50 (FSHR) [nM] | EC50 of cAMP production (% effect) (FSHR; + EC20 FSH, % effect in brackets, 60 min) | Clint (human) ([1]; human liver microsomes) [μL/min/mg protein] | Clint (rat) ([2]; rat liver microsomes) [μL/min/mg protein] | Emax (FSHR; [3]) [%] | microsomal CLint at 0.8 μM [1] [µL/min/mg] | microsomal CLint at 0.8 μM [2] [µL/min/mg] | SMILES
4 | 25 |  |  |  | 103 | 35 | 18 | [2H]c1c([2H])c([2H])c(C#Cc2c([2H])c([2H])c([C@H]3N(c4cccc(C(N)=O)c4)C(=O)[C@@H](CC(=O)NC([2H])([2H])C([2H])([2H])c4ccc(OC([2H])([2H])[2H])c(OCC)c4)[S@@+]3[O-])c([2H])c2[2H])c([2H])c1[2H] (single isomer, unassigned) [Compound 20]
5 | 113 |  |  |  | 103 | 351 | 241 | [2H]c1c([2H])c([2H])c(C#Cc2c([2H])c([2H])c([C@H]3N(c4cccc(C(N)=O)c4)C(=O)[C@@H](CC(=O)NC([2H])([2H])C([2H])([2H])c4ccc(OC([2H])([2H])[2H])c(OC([2H])([2H])[2H])c4)[S@@+]3[O-])c([2H])c2[2H])c([2H])c1[2H] (single isomer, unassigned) [Compound 21]
6 | 1.7 |  |  |  | 97 | 111 | 29 | [2H]C([2H])([2H])Oc1ccc(C([2H])([2H])C([2H])([2H])NC(=O)C[C@H]2S[C@@H](c3ccc(C#Cc4ccccc4)cc3)N(c3cccc(C(N)=O)c3)C2=O)cc1OC [Compound 3, 3-((2S,5R)-4-oxo-5-(2-oxo-2-((1,1,2,2-d4-2-(3-methoxy-4-(methoxy-d3)phenyl)ethyl)amino)ethyl)-2-(4-(phenylethynyl)phenyl)thiazolidin-3-yl)benzamide]
